One molecule from paper PMC8070004, “Isorhamnetin Ameliorates Dry Eye Disease via CFTR Activation in Mice” (International Journal of Molecular Sciences, 2021) can be followed below.

In one data set the target is T1, human CFTR (Homo sapiens, UniProt P13569).
T1 construct: expressed in transfected cells; host or cells: CHO-K1
In words: YFP quenching assay in CHO-K1 cells expressing CFTR and halide sensor YFP. To be noted: isorhamnetin applied 10 min prior to I- addition. In kind it is cell-based. The procedure:
CHO cells expressing wild-type CFTR with the halide sensor YFP-H148Q/I152L were plated in 96-well, black-walled microplates (Corning Inc., Corning, NY, USA) at a density of 2 × 10^4 cells per well. CHO-WT-CFTR-YFP cells were incubated for 48 h at 37 °C. Assays were done using FLUO star Omega microplate reader (BMG Labtech, Ortenberg, Germany) and MARS Data Analysis Software (BMG Labtech). Briefly, each well of a 96-well plate was washed three times in PBS (200 µL/wash). Then, 100 µL PBS was added to each well. Test compounds (1 µL) were added to each well at final concentration of 25 µM. After 10 min, 96-well plates were transferred to the microplate reader preheated to 37 °C for fluorescence assay. Each well was assayed individually for CFTR-mediated I^- influx by recording fluorescence continuously (400 ms per point) for 2 s (baseline). Then, 100 µL of 140 mM I^- solution were added at 2 s and then YFP fluorescence was recorded for 14 s. Initial iodide influx rate was determined from the initial slope of fluorescence decrease, by nonlinear regression, following infusion of iodide.

Another data set deals with T2, hERG potassium channel (Homo sapiens, UniProt Q12809).
T2 construct: expressed in transfected cells; host or cells: HEK293 / HEK293T
In words: FluxOR potassium ion channel assay in HEK293T cells expressing hERG. In kind it is cell-based. To be noted: 30 μM pretreated for 10 min. The procedure: HEK293 cells stably expressing human Kv11.1 (hERG) were plated in 96-well plates. After 48 h, the cells were incubated at 28 °C for 4 h to enhance membrane expression of hERG. The culture medium was replaced with 80 μL/well of FluxOR (Invitrogen) loading buffer and incubated for 1 h at 37 °C in the dark. After removal of the loading buffer, 100 µL of assay buffer were added to each well. To measure the effect of isorhamnetin on hERG channels, the cells were pretreated with isorhamnetin for 10 min. FluxOR fluorescence (excitation/emission: 490/525 nm) was recorded for 4 s before addition of 20 μL of stimulus buffer containing thallium ions, and the fluorescence was monitored. FluxOR fluorescence was recorded and analyzed using FLUOstar Omega Microplate Reader (BMG Labtech) and MARS Data Analysis Software (BMG Labtech). All buffers were prepared according to the manufacturer’s instructions.
Background: hERG is a cardiac potassium channel; its block is linked to QT prolongation.

The next data set has as its target T3, ENaC (Homo sapiens, UniProt P37088+P51168+P51170).
T3 construct: endogenous in cells; host or cells: T84 cells (provided by Dr. Min Goo Lee)
As to the kind of experiment: ENaC short-circuit current in T84 cells. Format: cell-based. The following applies: 30 μM applied 10 min prior to 100 µM amiloride. The protocol:
(§1) Snapwell inserts containing CFTR-expressing FRT and T84 cells were mounted in Ussing chambers (Physiologic Instruments, San Diego, CA, USA). Forskolin, isorhamnetin, and CFTRinh-172 were added to the apical and basolateral bath solution. For FRT cells, the apical bath was filled with a half-Cl^− solution and the basolateral bath was filled with HCO^3--buffered solution to generate transepithelial Cl^− gradient (apical, 64 mM; basolateral, 129 mM), and the basolateral membrane was permeabilized with 250 µg/mL amphotericin B. For T84 cells, symmetrical HCO^3--buffered solutions were used, and ENaC was inhibited with amiloride (100 µM). All cells were bathed for a 20-min stabilization period and aerated with 95% O2/5% CO2 at 37 °C. Apical membrane current and short-circuit current were measured with an EVC4000 Multi-Channel V/I Clamp (World Precision Instruments, Sarasota, FL, USA) and recorded using PowerLab 4/35 (AD Instruments, Castle Hill, Australia). Data were collected and analyzed with ADInstruments acquisition software Labchart Pro 7 software. The sampling rate was 4 Hz.

A further data set concerns the target T4, human ΔF508-CFTR (Homo sapiens, UniProt P13569, DEL508-508).
T4 construct: expressed in transfected cells; host or cells: FRT (Fisher rat thyroid) cells, provided by Dr. Alan Verkman; 27 °C for 24 h
As to the kind of experiment: Apical membrane current in FRT cells expressing low-temperature-rescued ΔF508-CFTR. Format: cell-based. The procedure:
as §1

Another data set has as its target T5, human ANO1 (Homo sapiens, UniProt Q5XXA6).
T5 construct: expressed in transfected cells; host or cells: FRT cells (FRT-ANO1)
T5 sequence (Q5XXA6 1-986): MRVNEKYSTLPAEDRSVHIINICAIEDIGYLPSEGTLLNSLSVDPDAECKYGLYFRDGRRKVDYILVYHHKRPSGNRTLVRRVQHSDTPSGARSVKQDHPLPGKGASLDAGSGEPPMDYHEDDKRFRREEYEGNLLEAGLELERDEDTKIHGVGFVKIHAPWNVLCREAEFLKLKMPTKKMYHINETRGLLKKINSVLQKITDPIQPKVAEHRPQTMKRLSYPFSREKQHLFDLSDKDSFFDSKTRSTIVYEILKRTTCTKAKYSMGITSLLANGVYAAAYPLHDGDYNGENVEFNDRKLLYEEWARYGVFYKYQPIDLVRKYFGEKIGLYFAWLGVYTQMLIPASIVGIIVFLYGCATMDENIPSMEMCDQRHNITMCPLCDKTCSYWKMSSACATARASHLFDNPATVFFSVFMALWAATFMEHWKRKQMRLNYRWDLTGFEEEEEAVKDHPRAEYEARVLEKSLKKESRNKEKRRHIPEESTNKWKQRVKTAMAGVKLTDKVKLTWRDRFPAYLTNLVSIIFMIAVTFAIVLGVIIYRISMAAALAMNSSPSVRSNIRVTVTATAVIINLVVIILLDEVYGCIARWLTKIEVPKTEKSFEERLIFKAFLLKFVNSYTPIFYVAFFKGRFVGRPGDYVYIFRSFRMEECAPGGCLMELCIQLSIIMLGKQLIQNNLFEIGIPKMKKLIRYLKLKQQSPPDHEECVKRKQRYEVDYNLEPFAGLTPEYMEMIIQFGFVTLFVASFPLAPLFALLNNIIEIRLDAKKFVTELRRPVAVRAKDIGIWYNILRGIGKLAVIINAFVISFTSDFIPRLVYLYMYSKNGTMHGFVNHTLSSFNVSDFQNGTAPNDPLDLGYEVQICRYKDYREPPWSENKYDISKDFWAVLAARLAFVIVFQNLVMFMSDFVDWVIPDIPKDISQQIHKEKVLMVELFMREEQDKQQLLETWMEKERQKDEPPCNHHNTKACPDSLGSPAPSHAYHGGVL
In words: Apical membrane current in FRT cells expressing human ANO1. Format: cell-based. The following applies: 30 μM added 10 min prior to ANO1 activation by 100 μM ATP.

The target of another data set is T6, CFTR (Mus musculus, UniProt P26361).
T6 construct: from tissue; host or cells: ocular surface of anesthetized CD-1 mice (in vivo)
T6 sequence (P26361 whole entry): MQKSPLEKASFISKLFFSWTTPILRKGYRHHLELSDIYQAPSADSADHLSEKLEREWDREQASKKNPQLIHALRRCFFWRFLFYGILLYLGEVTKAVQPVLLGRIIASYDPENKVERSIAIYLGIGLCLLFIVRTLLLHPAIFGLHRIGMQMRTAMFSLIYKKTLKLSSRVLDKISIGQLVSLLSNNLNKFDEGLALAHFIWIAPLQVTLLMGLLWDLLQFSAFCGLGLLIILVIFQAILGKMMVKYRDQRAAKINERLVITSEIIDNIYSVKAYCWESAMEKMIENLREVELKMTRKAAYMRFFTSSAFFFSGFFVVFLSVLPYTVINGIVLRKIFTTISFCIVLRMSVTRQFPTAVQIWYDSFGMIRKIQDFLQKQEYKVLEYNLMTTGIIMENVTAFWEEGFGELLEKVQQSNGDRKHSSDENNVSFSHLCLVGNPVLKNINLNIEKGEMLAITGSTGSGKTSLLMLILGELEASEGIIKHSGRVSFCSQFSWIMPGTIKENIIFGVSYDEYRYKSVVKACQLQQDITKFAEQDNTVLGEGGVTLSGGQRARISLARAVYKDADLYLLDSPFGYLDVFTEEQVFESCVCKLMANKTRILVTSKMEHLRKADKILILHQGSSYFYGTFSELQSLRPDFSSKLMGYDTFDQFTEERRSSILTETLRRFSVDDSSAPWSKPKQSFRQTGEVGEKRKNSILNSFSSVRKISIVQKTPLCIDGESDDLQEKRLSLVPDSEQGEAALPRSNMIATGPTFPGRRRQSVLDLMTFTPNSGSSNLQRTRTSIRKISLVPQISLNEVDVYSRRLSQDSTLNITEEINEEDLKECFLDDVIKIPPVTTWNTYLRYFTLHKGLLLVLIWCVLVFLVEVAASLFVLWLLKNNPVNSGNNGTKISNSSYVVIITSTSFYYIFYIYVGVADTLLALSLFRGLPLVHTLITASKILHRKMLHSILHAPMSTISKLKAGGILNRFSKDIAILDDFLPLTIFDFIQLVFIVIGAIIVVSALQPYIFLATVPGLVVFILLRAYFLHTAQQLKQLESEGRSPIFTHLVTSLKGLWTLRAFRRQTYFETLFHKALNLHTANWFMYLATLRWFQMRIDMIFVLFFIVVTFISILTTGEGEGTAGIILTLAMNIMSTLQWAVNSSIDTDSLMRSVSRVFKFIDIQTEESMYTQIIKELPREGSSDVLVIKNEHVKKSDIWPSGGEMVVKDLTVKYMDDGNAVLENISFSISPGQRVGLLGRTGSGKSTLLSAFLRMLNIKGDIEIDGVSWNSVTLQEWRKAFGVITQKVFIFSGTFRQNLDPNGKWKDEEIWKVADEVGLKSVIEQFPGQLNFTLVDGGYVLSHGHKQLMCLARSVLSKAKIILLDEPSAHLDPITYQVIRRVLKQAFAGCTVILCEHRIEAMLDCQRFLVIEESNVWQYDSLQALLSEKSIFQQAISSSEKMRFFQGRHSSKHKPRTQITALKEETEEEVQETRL
In words: Open-circuit ocular surface potential difference (PD) in CD-1 mice. Format: in vivo. To be noted: 30 μM isorhamnetin, amiloride and low Cl- perfusion.

T4 sequence (P13569 with tags, fused parts or gaps DEL508-508): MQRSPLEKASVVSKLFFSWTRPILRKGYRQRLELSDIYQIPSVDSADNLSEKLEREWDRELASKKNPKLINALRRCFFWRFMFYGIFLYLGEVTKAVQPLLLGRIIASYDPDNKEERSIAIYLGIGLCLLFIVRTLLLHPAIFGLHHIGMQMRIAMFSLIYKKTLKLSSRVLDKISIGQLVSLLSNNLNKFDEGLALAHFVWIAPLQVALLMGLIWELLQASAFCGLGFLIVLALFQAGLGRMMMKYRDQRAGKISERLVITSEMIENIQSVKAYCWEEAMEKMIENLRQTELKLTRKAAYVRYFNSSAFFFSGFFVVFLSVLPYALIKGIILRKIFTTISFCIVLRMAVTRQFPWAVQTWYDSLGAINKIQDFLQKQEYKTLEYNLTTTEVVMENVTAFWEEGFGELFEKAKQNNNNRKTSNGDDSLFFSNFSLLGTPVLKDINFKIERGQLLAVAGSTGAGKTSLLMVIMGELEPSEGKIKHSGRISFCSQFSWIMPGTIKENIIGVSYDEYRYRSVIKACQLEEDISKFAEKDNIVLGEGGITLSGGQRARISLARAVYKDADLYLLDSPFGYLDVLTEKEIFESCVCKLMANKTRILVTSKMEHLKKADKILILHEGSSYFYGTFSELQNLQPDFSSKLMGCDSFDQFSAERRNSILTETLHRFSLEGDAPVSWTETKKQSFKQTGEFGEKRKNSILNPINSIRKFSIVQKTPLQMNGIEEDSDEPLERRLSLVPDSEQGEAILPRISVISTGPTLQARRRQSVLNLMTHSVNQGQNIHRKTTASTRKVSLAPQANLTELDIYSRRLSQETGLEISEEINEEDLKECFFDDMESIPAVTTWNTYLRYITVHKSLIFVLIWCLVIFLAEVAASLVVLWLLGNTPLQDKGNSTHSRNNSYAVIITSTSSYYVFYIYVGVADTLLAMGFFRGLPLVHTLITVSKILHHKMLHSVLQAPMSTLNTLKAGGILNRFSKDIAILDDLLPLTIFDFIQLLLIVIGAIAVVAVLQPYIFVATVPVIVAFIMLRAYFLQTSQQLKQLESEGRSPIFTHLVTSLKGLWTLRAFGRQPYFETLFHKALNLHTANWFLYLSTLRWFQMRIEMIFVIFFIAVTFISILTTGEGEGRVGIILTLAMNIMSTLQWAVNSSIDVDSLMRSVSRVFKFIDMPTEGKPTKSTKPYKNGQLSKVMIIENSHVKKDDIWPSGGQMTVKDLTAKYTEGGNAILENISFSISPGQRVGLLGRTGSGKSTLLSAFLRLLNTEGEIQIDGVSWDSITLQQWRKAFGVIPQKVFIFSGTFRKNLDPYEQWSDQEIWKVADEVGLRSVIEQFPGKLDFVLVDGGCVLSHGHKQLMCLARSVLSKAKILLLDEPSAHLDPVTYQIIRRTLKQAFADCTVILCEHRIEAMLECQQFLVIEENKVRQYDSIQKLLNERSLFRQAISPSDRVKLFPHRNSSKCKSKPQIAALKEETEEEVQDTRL
T3 sequence (P51168 whole entry): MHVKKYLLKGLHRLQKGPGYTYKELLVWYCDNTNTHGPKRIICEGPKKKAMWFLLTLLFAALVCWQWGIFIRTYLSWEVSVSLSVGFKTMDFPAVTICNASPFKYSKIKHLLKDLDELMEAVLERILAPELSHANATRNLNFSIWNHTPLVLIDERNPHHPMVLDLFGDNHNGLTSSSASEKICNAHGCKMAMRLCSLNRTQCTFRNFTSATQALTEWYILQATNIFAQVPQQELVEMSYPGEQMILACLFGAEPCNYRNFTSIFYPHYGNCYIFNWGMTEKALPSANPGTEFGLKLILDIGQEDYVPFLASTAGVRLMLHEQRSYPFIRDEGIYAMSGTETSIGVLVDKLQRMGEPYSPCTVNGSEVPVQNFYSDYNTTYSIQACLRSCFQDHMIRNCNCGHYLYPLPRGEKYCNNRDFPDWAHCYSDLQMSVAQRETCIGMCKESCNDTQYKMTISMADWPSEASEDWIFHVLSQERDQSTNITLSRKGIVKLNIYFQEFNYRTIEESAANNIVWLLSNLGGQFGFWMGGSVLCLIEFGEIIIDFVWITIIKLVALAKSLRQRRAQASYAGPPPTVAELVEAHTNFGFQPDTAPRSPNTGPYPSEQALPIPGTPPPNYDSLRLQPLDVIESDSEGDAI
T3 sequence (P37088 whole entry): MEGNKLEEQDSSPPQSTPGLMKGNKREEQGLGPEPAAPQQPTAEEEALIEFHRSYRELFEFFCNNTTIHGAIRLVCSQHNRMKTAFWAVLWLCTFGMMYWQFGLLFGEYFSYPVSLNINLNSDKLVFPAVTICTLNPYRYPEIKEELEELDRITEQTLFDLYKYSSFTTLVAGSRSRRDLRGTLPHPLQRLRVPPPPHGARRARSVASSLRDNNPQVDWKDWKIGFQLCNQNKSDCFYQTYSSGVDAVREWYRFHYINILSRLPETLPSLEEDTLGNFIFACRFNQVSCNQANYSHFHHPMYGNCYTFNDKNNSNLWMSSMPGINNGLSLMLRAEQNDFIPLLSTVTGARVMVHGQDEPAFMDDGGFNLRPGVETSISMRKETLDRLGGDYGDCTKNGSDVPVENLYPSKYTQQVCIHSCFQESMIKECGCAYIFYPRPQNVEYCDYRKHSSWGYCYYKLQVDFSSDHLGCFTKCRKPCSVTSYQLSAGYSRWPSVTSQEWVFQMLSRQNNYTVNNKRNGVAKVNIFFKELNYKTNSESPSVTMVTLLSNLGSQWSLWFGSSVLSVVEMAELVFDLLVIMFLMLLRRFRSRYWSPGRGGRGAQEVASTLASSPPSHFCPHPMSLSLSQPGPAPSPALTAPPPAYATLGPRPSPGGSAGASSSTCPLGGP
T3 sequence (P51170 whole entry): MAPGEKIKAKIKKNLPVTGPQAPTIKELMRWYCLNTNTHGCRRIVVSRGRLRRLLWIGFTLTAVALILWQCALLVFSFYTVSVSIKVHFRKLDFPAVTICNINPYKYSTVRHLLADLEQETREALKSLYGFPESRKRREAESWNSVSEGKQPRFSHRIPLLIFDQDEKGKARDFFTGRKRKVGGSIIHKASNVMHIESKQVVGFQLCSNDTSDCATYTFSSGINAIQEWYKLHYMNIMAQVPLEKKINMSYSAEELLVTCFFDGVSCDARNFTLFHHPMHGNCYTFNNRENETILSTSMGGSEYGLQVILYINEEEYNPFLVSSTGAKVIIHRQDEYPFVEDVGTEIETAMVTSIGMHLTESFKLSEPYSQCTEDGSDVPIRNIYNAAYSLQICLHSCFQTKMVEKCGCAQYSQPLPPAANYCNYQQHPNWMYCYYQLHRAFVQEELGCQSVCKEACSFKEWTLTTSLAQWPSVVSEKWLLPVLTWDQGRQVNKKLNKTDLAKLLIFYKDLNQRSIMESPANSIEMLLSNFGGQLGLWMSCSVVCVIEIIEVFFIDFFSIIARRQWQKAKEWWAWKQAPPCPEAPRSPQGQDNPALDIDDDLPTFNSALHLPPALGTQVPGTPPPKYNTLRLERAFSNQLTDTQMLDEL

As to `COc1cc(-c2oc3cc(O)cc(O)c3c(=O)c2O)ccc1O` [isorhamnetin], the “CFTR chloride channel activity (YFP quenching)” value on human CFTR is “significantly increased”. At hERG potassium channel, the hERG channel activity result is recorded as “did not affect”. On ENaC, the “ENaC function (short-circuit current)” value is on record as “did not alter”. The “ΔF508-CFTR chloride current activated by 20 μM forskolin” value on human ΔF508-CFTR (30 μM isorhamnetin) is on record as “doubled”. The “forskolin-induced ΔF508-CFTR chloride current” value on human ΔF508-CFTR (dose-dependent, ΔF508-CFTR rescued at 27 °C for 24 h) is “strongly potentiated”. Moreover, on human ANO1, the “ANO1 function (apical membrane current)” value is given as “did not alter”. Besides, the “ocular surface PD” value at CFTR is reported as “significantly hyperpolarized”.
